How the values were obtained:
[1] = tested on: cells; conditions: cited from earlier work
[2] = tested on: cells; test: AP1903 amount for effective signaling of cells in vitro; format: cell-based; conditions: 1600 Da MW
Method: The fixed dose of AP1903 for injection used, for example, may be 0.4 mg/kg intravenously infused over 2 hours. The amount of AP1903 needed in vitro for effective signaling of cells is 10-100 nM (1600 Da MW). This equates to 16-160 μg/L or 0.016-1.6 μg/kg (1.6-160 μg/kg). Doses up to 1 mg/kg were well-tolerated in the Phase I study of AP1903 described above. Therefore, 0.4 mg/kg may be a safe and effective dose of AP1903 for this Phase I study in combination with the therapeutic cells.

[3] = target: T1, iC9 safety switch (Homo sapiens, UniProt P62942, F37V); test: iC9 safety switch test: viability by flow cytometry using 7-AAD after AP1903; format: cell-based
T1 construct: expressed in transfected cells
T1 sequence (P62942 with tags, fused parts or gaps F37V): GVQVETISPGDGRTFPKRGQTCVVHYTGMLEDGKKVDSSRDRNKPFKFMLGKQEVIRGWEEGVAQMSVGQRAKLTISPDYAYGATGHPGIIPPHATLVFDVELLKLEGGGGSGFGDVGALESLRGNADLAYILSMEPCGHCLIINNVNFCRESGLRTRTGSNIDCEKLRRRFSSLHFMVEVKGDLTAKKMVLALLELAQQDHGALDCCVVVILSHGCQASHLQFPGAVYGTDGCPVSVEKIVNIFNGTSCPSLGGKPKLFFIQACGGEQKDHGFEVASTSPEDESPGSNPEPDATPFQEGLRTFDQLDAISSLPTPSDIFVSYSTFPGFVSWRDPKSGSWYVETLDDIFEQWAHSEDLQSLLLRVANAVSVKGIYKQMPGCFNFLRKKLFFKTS
From the text: Human pan T-cells were nucleofected using an Amaxa 4D nucleofector with one of four piggyBac transposons. Modified T cells receiving the “mock” condition were nucleofected with an empty piggyBac transposon. Modified T cells received either a piggyBac transposon containing a therapeutic agent alone (a sequence encoding a CARTyrin) or a piggyBac transposon containing an integrated iC9 sequence and a therapeutic agent (a sequence encoding a CARTyrin).
To test the iC9 safety switch, each of the four modified T cells were incubated for 24 hours with 0, 0.1 nM, 1 nM, 10 nM, 100 nM or 1000 nM AP1903 (an induction agent for […]). Viability was assessed by flow cytometry using 7-aminoactinomycin D (7-AAD), a fluorescent intercalator, as a marker for cells undergoing apoptosis.
Cell viability was assessed at day 12 (see FIG. 9). […] Moreover, cell viability was assessed at day 19 (see FIG. 10). […]
A quantification of the aggregated results was performed and is provided in FIG. 11, showing the significant impact of the iC9 safety switch on the percent cell viability as a function of the concentration of the induction agent (AP1903) of the iC9 switch for each modified cell type at either day 12 (FIG. 9 and left graph) or day 19 (FIG. 10 and right graph).

[4] = cited from earlier work
[5] = tested on: Pan T cells; test: Expansion of BCMA CAR-T cells with CSR over 19 day culture; format: cell-based, human; conditions: CSR transient (mRNA) or stable (piggyBac)
From the text: FIG. 36 is a graph showing that delivery of CSR enhances the expansion of CAR-T cells. CSRs were delivered to CAR-T cells either transiently by mRNA or stably by piggyBac™. Pan T cells isolated from the blood of a normal donor were genetically modified using the piggyBac™ DNA modification system and the standard Poseida process. Cells were co-electroporated in a single reaction with mRNA encoding the Super piggyBac transposase enzyme (SPB), a transposon encoding a BCMA CAR and selection gene, along with an additional mRNA encoding a CSR (either CD28z or CD2z; resulting in transient expression) or a CD19 mRNA control, or, with a transposon encoding a BCMA CAR, selection gene and a CSR (either CD28z or CD2z; resulting in stable expression). The cells were subsequently stimulated with agonist mAbs anti-CD2, anti-CD3 and anti-CD28, and were later selected for genetic modification over the course of a 19 day culture period. At the end of the initial culture period all T cells expressed the CAR, indicating successful selection for genetically-modified cells (data not shown). Bars represent total live CAR-T cells in well and numbers indicate fold-enhancement of expansion above CAR-T cells produced in the absence of a CSR or a CD19 mRNA control.

## CC[C@H](C(=O)N1CCCC[C@H]1C(=O)O[C@H](CCc1ccc(OC)c(OC)c1)c1cccc(OCC(=O)NCCNC(=O)COc2cccc([C@@H](CCc3ccc(OC)c(OC)c3)OC(=O)[C@@H]3CCCCN3C(=O)[C@@H](CC)c3cc(OC)c(OC)c(OC)c3)c2)c1)c1cc(OC)c(OC)c(OC)c1 (relative stereo) [AP1903, 2-Piperidinecarboxylic acid, 1-[(2S)-1-oxo-2-(3,4,5-trimethoxyphenyl)butyl]-, 1,2-ethanediylbis[imino(2-oxo-2,1-ethanediyl)oxy-3,1-phenylene[(1R)-3-(3,4-dimethoxyphenyl)propylidene]]ester, [2S-[1(R*),2R*[S*[S*[1(R*),2R*]]]]]-(9C1)]
[1]
  amount needed in vitro for effective signaling of cells: 10 to 100 nM
[2]
  amount needed in vitro for effective signaling of cells, converted: 16 to 160 µg/L
[3]; T cells containing iC9 construct, 24 hours incubation
  concentration at which AP1903 induces apoptosis (lowest concentration of the study): ≤ 0.1 nM
[4]; 0.01, 0.05, 0.1, 0.5 and 1.0 mg/kg IV over 2 hours
  safety and tolerability: safe and well tolerated at all dose levels
[4]; 0.01-1.0 mg/kg infused IV over 2 hours, healthy volunteers
  mean Cmax: 10 to 1275 ng/mL
[4]; 0.01-1.0 mg/kg
  plasma levels versus dose: directly proportional to dose
[4]; Phase I study
  well-tolerated dose: up to 1 mg/kg
[4]; after initial infusion period
  plasma level as % of maximal concentration, 0.5 hours post-dose: approximately 18%
  plasma level as % of maximal concentration, 2 hours post-dose: ~7%
  plasma level as % of maximal concentration, 10 hours post-dose: ~1%
[4]; human, in vivo
  pharmacokinetic profile: favorable pharmacokinetic profile

## CD28z CSR: chimeric stimulatory receptor: wild type CD28 and CD3z intracellular stimulation domain, SEQ ID NO: 17910
[5]
  expansion of CAR-T cells: a greater degree of expansion of the CAR-T cells

## iC9 safety switch: ligand binding region (FKBP12 F36V), a linker, and a truncated caspase 9 polypeptide (SEQ ID NO: 18032)
[3]; with induction agent AP1903, by day 12 post-nucleofection
  apoptosis induced by presence of the iC9 safety switch: induces apoptosis in a significant majority of cells

B1: CD2z CSR: chimeric stimulatory receptor: wild type CD2 and CD3z intracellular stimulation domain, SEQ ID NO: 17912 (protein)
chain: MSFPCKFVASFLLIFNVSSKGAVSKEITNALETWGALGQDINLDIPSFQMSDDIDDIKWEKTSDKKKIAQFRKEKETFKEKDTYKLFKNGTLKIKHLKTDDQDIYKVSIYDTKGKNVLEKIFDLKIQERVSKPKISWTCINTTLTCEVMNGTDPELNLYQDGKHLKLSQRVITHKWTTSLSAKFKCTAGNKVSKESSVEPVSCPEKGLDIYLIIGICGGGSLLMVFVALLVFYITKRKKQRSRRNDEELETRAHRVATEERGRKPHQIPASTPQNPATSQHPPPPPGHRSQAPSHRPPPPGHRVQHQPQKRPPAPSGTQVHQQKGPPLPRPRVQPKPPHGAAENSLSPSSNRVKFSRSADAPAYKQGQNQLYNELNLGRREEYDVLDKRRGRDPEMGGKPRRKNPQEGLYNELQKDKMAEAYSEIGMKGERRRGKGHDGLYQGLSTATKDTYDALHMQALPPR
[5]
  expansion of CAR-T cells: a greater degree of expansion of the CAR-T cells
